Data from the NIST ThermoML archive (doi:10.1016/j.jct.2010.11.014).
± gives the expanded uncertainty stated by the source.

Tests used:
[1] = molar heat capacity at constant pressure; xn = mol fraction of the nth substance listed; conditions: 101.3 kPa, Liquid, Adiabatic Solution Calorimetry
[2] = excess molar enthalpy (molar enthalpy of mixing); xn = mol fraction of the nth substance listed; conditions: 298.15 K, 101.3 kPa, Liquid, Adiabatic Solution Calorimetry

| SMILES | molar heat capacity at constant pressure ([1]; 298.15 K, x1 = 0.2) [J/K/mol] | molar heat capacity at constant pressure ([1]; 298.15 K, x1 = 1) [J/K/mol] | molar heat capacity at constant pressure ([1]; 303.15 K, x1 = 0.2) [J/K/mol] | molar heat capacity at constant pressure ([1]; 303.15 K, x1 = 1) [J/K/mol] | molar heat capacity at constant pressure ([1]; 313.15 K, x1 = 0.2) [J/K/mol] | molar heat capacity at constant pressure ([1]; 313.15 K, x1 = 1) [J/K/mol] | molar heat capacity at constant pressure ([1]; 323.15 K, x1 = 0.2) [J/K/mol] | molar heat capacity at constant pressure ([1]; 323.15 K, x1 = 1) [J/K/mol] | molar heat capacity at constant pressure ([1]; 298.15 K, x1 = 0.4) [J/K/mol] | molar heat capacity at constant pressure ([1]; 298.15 K, x1 = 0.6) [J/K/mol] | molar heat capacity at constant pressure ([1]; 298.15 K, x1 = 0.8) [J/K/mol] | molar heat capacity at constant pressure ([1]; 303.15 K, x1 = 0.4) [J/K/mol] | molar heat capacity at constant pressure ([1]; 303.15 K, x1 = 0.6) [J/K/mol] | molar heat capacity at constant pressure ([1]; 303.15 K, x1 = 0.8) [J/K/mol] | molar heat capacity at constant pressure ([1]; 313.15 K, x1 = 0.4) [J/K/mol] | molar heat capacity at constant pressure ([1]; 313.15 K, x1 = 0.6) [J/K/mol] | molar heat capacity at constant pressure ([1]; 313.15 K, x1 = 0.8) [J/K/mol] | molar heat capacity at constant pressure ([1]; 323.15 K, x1 = 0.4) [J/K/mol] | molar heat capacity at constant pressure ([1]; 323.15 K, x1 = 0.6) [J/K/mol] | molar heat capacity at constant pressure ([1]; 323.15 K, x1 = 0.8) [J/K/mol] | further results |
| --- | --- | --- | --- | --- | --- | --- | --- | --- | --- | --- | --- | --- | --- | --- | --- | --- | --- | --- | --- | --- | --- |
| CCn1cc[n+](C)c1.COP(=O)([O-])OC [1-ethyl-3-methylimidazolium dimethylphosphate] + CO | 147.03 ± 28 | 329.37 ± 91 | 163.64 ± 28 | 346.23 ± 91 | 215.28 ± 28 | 381.64 ± 91 | 252.08 ± 28 | 411.74 ± 91 |  |  |  |  |  |  |  |  |  |  |  |  | molar heat capacity at constant pressure ([1]; 298.15 K, x1 = 0.41): 213.84 ± 44 J/K/mol; molar heat capacity at constant pressure ([1]; 298.15 K, x1 = 0.59): 269.26 ± 59 J/K/mol; molar heat capacity at constant pressure ([1]; 298.15 K, x1 = 0.77): 297.59 ± 73 J/K/mol; molar heat capacity at constant pressure ([1]; 303.15 K, x1 = 0.41): 229.84 ± 44 J/K/mol; molar heat capacity at constant pressure ([1]; 303.15 K, x1 = 0.59): 289.07 ± 59 J/K/mol; molar heat capacity at constant pressure ([1]; 303.15 K, x1 = 0.77): 306.37 ± 73 J/K/mol; molar heat capacity at constant pressure ([1]; 313.15 K, x1 = 0.41): 271.99 ± 44 J/K/mol; molar heat capacity at constant pressure ([1]; 313.15 K, x1 = 0.59): 337.82 ± 59 J/K/mol; molar heat capacity at constant pressure ([1]; 313.15 K, x1 = 0.77): 334.16 ± 73 J/K/mol; molar heat capacity at constant pressure ([1]; 323.15 K, x1 = 0.41): 312.33 ± 44 J/K/mol; molar heat capacity at constant pressure ([1]; 323.15 K, x1 = 0.59): 370.93 ± 59 J/K/mol; molar heat capacity at constant pressure ([1]; 323.15 K, x1 = 0.77): 371.12 ± 73 J/K/mol; excess molar enthalpy ([2]; x1 = 0.1): -0.376 ± 0.043 kcal/mol; excess molar enthalpy ([2]; x1 = 0.3): -0.803 ± 0.043 kcal/mol; excess molar enthalpy ([2]; x1 = 0.5): -0.801 ± 0.043 kcal/mol; excess molar enthalpy ([2]; x1 = 0.65): -0.62 ± 0.043 kcal/mol; excess molar enthalpy ([2]; x1 = 0.79): -0.435 ± 0.043 kcal/mol |
| CCn1cc[n+](C)c1.COP(=O)([O-])OC [1-ethyl-3-methylimidazolium dimethylphosphate] + O |  | 329.37 ± 69 |  | 346.23 ± 69 |  | 381.64 ± 69 |  | 411.74 ± 69 | 167.14 ± 31 | 224.66 ± 43 | 279.14 ± 56 | 176.74 ± 31 | 242.41 ± 43 | 288.72 ± 56 | 203.5 ± 31 | 276.49 ± 43 | 323.78 ± 56 | 228.82 ± 31 | 304.05 ± 43 | 352.68 ± 56 | molar heat capacity at constant pressure ([1]; 298.15 K, x1 = 0.18): 119.02 ± 17 J/K/mol; molar heat capacity at constant pressure ([1]; 303.15 K, x1 = 0.18): 125.02 ± 17 J/K/mol; molar heat capacity at constant pressure ([1]; 313.15 K, x1 = 0.18): 134.91 ± 17 J/K/mol; molar heat capacity at constant pressure ([1]; 323.15 K, x1 = 0.18): 148.41 ± 17 J/K/mol; excess molar enthalpy ([2]; x1 = 0.18): -1.26 ± 0.0287 kcal/mol; excess molar enthalpy ([2]; x1 = 0.31): -1.51 ± 0.0287 kcal/mol; excess molar enthalpy ([2]; x1 = 0.45): -1.44 ± 0.0287 kcal/mol; excess molar enthalpy ([2]; x1 = 0.64): -1.15 ± 0.0287 kcal/mol; excess molar enthalpy ([2]; x1 = 0.82): -0.604 ± 0.0287 kcal/mol |
| CCn1cc[n+](C)c1.COP(=O)([O-])OC [1-ethyl-3-methylimidazolium dimethylphosphate] + CCO | 153.21 ± 38 | 329.37 ± 110 | 171.31 ± 38 | 346.23 ± 110 | 205.63 ± 38 | 381.64 ± 110 | 258.83 ± 38 | 411.74 ± 110 | 220.84 ± 55 | 272.51 ± 72 | 324.35 ± 90 | 235.29 ± 55 | 289.67 ± 72 | 348.58 ± 90 | 282.28 ± 55 | 340.78 ± 72 | 404 ± 90 | 335.32 ± 55 | 398.34 ± 72 | 448.05 ± 90 | excess molar enthalpy ([2]; x1 = 0.15): -0.428 ± 0.0206 kcal/mol; excess molar enthalpy ([2]; x1 = 0.31): -0.656 ± 0.0206 kcal/mol; excess molar enthalpy ([2]; x1 = 0.47): -0.57 ± 0.0206 kcal/mol; excess molar enthalpy ([2]; x1 = 0.59): -0.522 ± 0.0206 kcal/mol; excess molar enthalpy ([2]; x1 = 0.8): -0.286 ± 0.0203 kcal/mol |
